From PubChem BioAssay (NCI)
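The compound was tested at five concentrations on cells cultured in 96-well plates, with a 48-hour exposure period. GI50 marks 50% less growth. TGI marks complete inhibition of growth.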

Tests used:
Assay in all cases: NCI anticancer screen, dose series, 48 h
786-0 renal = test system: 786-0 renal
A498 renal = test system: A498 renal
A549 NSCLC = test system: A549 NSCLC
ACHN renal = test system: ACHN renal
BT-549 breast = test system: BT-549 breast
CAKI-1 renal = test system: CAKI-1 renal
CCRF-CEM leukemia = test system: CCRF-CEM leukemia
COLO 205 colon = test system: COLO 205 colon
DU-145 prostate = test system: DU-145 prostate
EKVX NSCLC = test system: EKVX NSCLC
HCT-116 colon = test system: HCT-116 colon
HCT-15 colon = test system: HCT-15 colon
HL-60(TB) leukemia = test system: HL-60(TB) leukemia
HOP-62 NSCLC = test system: HOP-62 NSCLC
HOP-92 NSCLC = test system: HOP-92 NSCLC
HS 578T breast = test system: HS 578T breast
HT29 colon = test system: HT29 colon
IGROV1 ovarian = test system: IGROV1 ovarian
K-562 leukemia = test system: K-562 leukemia
KM12 colon = test system: KM12 colon
LOX IMVI melanoma = test system: LOX IMVI melanoma
M14 melanoma = test system: M14 melanoma
MALME-3M melanoma = test system: MALME-3M melanoma
MCF7 breast = test system: MCF7 breast
MDA-MB-231 breast = test system: MDA-MB-231 breast
MDA-MB-435 = test system: MDA-MB-435
MDA-MB-468 breast = test system: MDA-MB-468 breast

In the case of `COc1ccc2[nH]c(O)c(N=Nc3nc(-c4ccc(Cl)cc4)cs3)c2c1`, the GI50 (786-0 renal) is reported as 1.6 µM, the TGI (786-0 renal) is reported as 3.09 µM and the GI50 (A498 renal) is reported as 2.22 µM. The TGI (A498 renal) was 4.94 µM, the GI50 (A549 NSCLC) was 2.08 µM and the TGI (A549 NSCLC) was 5.09 µM. The GI50 (ACHN renal) was 2.9 µM, the TGI (ACHN renal) was 8.71 µM and the GI50 (BT-549 breast) was 3.21 µM. For the same compound, the TGI (BT-549 breast) was 28.3 µM, the GI50 (CAKI-1 renal) was 6.7 µM and the TGI (CAKI-1 renal) was 30.6 µM. The GI50 (CCRF-CEM leukemia) was 4.1 µM, the TGI (CCRF-CEM leukemia) was > 100 µM and the GI50 (COLO 205 colon) was 3.1 µM. For the same compound, the TGI (COLO 205 colon) was > 100 µM, the GI50 (DU-145 prostate) was 3.61 µM and the TGI (DU-145 prostate) was 30.9 µM. For the same compound, the GI50 (EKVX NSCLC) was 2.7 µM, the TGI (EKVX NSCLC) was 21.4 µM and the GI50 (HCT-116 colon) was 1.88 µM. It also gave a TGI (HCT-116 colon) of 3.75 µM, a GI50 (HCT-15 colon) of 1.93 µM and a TGI (HCT-15 colon) of 4.14 µM. The GI50 (HL-60(TB) leukemia) was > 100 µM, the TGI (HL-60(TB) leukemia) was > 100 µM and the GI50 (HOP-62 NSCLC) was 2.61 µM. For the same compound, the TGI (HOP-62 NSCLC) was 9.06 µM, the GI50 (HOP-92 NSCLC) was 1.92 µM and the TGI (HOP-92 NSCLC) was 4.88 µM. The GI50 (HS 578T breast) was 4.54 µM, the TGI (HS 578T breast) was 99.7 µM and the GI50 (HT29 colon) was 3.52 µM. For the same compound, the TGI (HT29 colon) was 50.8 µM, the GI50 (IGROV1 ovarian) was 4.51 µM and the TGI (IGROV1 ovarian) was 60.8 µM. For the same compound, the GI50 (K-562 leukemia) was 3.49 µM, the TGI (K-562 leukemia) was > 100 µM and the GI50 (KM12 colon) was 3.15 µM. For the same compound, the TGI (KM12 colon) was > 100 µM, the GI50 (LOX IMVI melanoma) was 1.9 µM and the TGI (LOX IMVI melanoma) was 4.08 µM. The GI50 (M14 melanoma) was 1.99 µM, the TGI (M14 melanoma) was 5.29 µM and the GI50 (MALME-3M melanoma) was 1.74 µM. It also gave a TGI (MALME-3M melanoma) of 3.37 µM, a GI50 (MCF7 breast) of 2.53 µM and a TGI (MCF7 breast) of 16.7 µM. It also gave a GI50 (MDA-MB-231 breast) of 2.73 µM, a TGI (MDA-MB-231 breast) of 8.19 µM and a GI50 (MDA-MB-435) of 5.86 µM. For the same compound, the TGI (MDA-MB-435) was > 100 µM, the GI50 (MDA-MB-468 breast) was 1.45 µM and the TGI (MDA-MB-468 breast) was 3.24 µM.
